The results in this text go back to patent US9388142B2, “Quinazolinone derivatives as PARP inhibitors” (MERCK PATENT GMBH, priority 2012, dated 2016).

Structures are written as SMILES.

For one experiment, the system named is tankyrase 1/2. Kind of experiment: Cellular inhibition of tankyrase: increase of Axin2 level in DLD1 cells (Luminex). It is filed as cell-based. The conditions noted are these: read-out: EC50 tankyrase 1/2 (cell assay), 24 hours. The procedure:
Measurement of Cellular Inhibition of Tankyrase
Cells of the colon carcinoma cell line DLD1 are plated in 96 well plates with 1.5×10^4 cells per well. Next day, cells are treated with a serial dilution of test compound in seven steps as triplicates with a final DMSO concentration of 0.3%. After 24 hours, cells are lysed in lysis buffer (20 mM Tris/HCl pH 8.0, 150 mM NaCl, 1% NP40, 10% Glycerol) and lysates are cleared by centrifugation through a 96 well filter plate (0.65 μm). […] The amount of isolated Axin2 protein is determined in a Luminex^200 machine (Luminex Corporation) according to the manufacturer's instruction by counting 100 events per well. […] For analysis, the obtained data are normalized against the untreated solvent control and fitted for determination of the EC50 values using the Assay Explorer software (Accelrys).

For the next experiment, the target named is T1, His-tagged Parp-1 (Homo sapiens, UniProt P09874).
T1 construct: purchased Enzo Life Sciences GmbH, Lörrach, Germany
T1 sequence (P09874 whole entry): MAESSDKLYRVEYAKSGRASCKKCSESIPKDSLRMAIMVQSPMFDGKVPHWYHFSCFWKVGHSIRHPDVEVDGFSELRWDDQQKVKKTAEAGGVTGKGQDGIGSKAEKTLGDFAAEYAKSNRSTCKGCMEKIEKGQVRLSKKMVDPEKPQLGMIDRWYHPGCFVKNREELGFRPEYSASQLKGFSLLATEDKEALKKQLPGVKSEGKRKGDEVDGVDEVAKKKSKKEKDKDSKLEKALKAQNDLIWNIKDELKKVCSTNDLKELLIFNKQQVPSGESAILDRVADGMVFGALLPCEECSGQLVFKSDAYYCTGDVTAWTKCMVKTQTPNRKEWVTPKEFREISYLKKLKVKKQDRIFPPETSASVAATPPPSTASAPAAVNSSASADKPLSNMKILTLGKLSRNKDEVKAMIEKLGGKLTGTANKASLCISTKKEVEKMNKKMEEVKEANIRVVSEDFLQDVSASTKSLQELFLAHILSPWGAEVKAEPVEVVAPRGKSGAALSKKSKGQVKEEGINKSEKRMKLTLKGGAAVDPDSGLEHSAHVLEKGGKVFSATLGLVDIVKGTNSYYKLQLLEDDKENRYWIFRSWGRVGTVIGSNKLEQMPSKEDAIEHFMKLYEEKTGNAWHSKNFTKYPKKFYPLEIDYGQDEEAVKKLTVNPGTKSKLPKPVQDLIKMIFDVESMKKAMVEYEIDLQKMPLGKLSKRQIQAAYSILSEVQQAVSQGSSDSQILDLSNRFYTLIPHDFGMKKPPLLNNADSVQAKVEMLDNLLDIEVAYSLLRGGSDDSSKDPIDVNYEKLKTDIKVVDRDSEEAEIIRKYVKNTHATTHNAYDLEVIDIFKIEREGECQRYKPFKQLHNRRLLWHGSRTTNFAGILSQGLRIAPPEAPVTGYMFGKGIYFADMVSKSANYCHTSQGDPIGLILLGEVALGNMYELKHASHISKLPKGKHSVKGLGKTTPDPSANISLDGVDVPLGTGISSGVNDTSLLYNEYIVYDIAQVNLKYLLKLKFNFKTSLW
As to the kind of experiment: PARP-1 autoparsylation assay (HTRF). The format is biochemical. The source says:
Description of the PARP1 Assay
Biochemical Activity Testing of PARP-1: Autoparsylation Assay
The autoparsylation assay is run in two steps: the enzymatic reaction in which His-tagged Parp-1 transfers biotinylated ADP-ribose/ADP-ribose to itself from biotinylated NAD/NAD as co-substrate and the detection reaction where a time resolved FRET between cryptate labelled anti-His antibody bound to the His tag of the enzyme and Xlent® labelled-streptavidin bound the biotin-parsylation residue is analysed. The autoparsylation activity is detectable directly via the increase in HTRF signal.
The autoparsylation assay is performed as 384-well HTRF® (Cisbio, Codolet, France) assay format in Greiner low volume nb 384-well microtiter plates. 35 nM His-tagged Parp-1 (human, recombinant, Enzo Life Sciences GmbH, Lörrach, Germany) and a mixture of 125 nM bio-NAD (Biolog, Life science Inst., Bremen, Germany) and 800 nM NAD as co-substrate are incubated in a total volume of 6 μl (100 mM Tris/HCl, 4 mM Mg-chloride, 0.01% IGEPAL® CA630, 1 mM DTT, 0.5% DMSO, pH 8, 13 ng/μl activated DNA (BPS Bioscience, San Diego, US)) in the absence or presence of the test compound (10 dilution concentrations) for 150 min at 23° C. The reaction is stopped by the addition of 4 μl of the Stop/detection solution (70 nM SA-Xlent® (Cisbio, Codolet, France), 2.5 nM Anti-His-K® (Eu-labelled anti-His, Cisbio, Codolet, France) in 50 mM HEPES, 400 mM KF, 0.1% BSA, 20 mM EDTA, pH 7.0). After 1 h incubation at room temperature the HTRF iss measured with an Envision multimode reader (Perkin Elmer LAS Germany GmbH) at excitation wavelength 340 nm (laser mode) and emission wavelengths 615 nm and 665 nm. The ratio of the emission signals is determined. The full value used is the inhibitor-free reaction. The pharmacological zero value used is Olaparib (LClabs, Woburn, US) in a final concentration of 1 The inhibitory values (IC50) are determined using either the program Symyx Assay Explorer® or Condosseo® from GeneData.
For orientation: TR-FRET usually uses a lanthanide donor and a delayed reading to cut background.

In experiment [1] the target is T2, GST-tagged Tnks-1 (1023-1327 aa) (Homo sapiens, UniProt O95271).
T2 construct: GST-tagged Tnks-1 (1023-1327 aa, prepared in-house); made in house
T2 sequence (O95271 1023-1327): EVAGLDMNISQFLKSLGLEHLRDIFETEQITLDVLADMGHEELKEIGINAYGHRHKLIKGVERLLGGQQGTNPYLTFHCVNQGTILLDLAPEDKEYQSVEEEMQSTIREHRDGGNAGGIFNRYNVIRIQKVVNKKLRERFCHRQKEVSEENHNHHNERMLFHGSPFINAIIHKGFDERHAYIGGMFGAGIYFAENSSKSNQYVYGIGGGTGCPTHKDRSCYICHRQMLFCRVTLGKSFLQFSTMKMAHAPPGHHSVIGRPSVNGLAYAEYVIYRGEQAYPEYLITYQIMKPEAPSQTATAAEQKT
Kind of experiment: TNKS1 activity ELISA (autoparsylation assay). The conditions noted are these: read-out: IC50 TNKS1 ELISA. It is filed as biochemical. Here is the method:
(§1) Description of the TNKS1 and TNKS2 ELISA Assay
(§2) Then the activity assay with biotinylated NAD is performed in the absence/presence of the compounds. During the enzymatic reaction GST tagged TNKS transfers biotinylated ADP-ribose to itself from biotinylated NAD as co-substrate. For the detection streptavidin-HRP conjugate is added that binds to the biotinylated TNKS and is thereby captured to the plates. The amount of biotinylated resp. autoparsylated TNKS is detected with a luminescence substrate for HRP. The level of the luminescence signal correlates directly with the amount of autoparsylated TNKS and therefore with activity of TNKS.
(§3) The activity ELISA is performed in 384 well Glutathione coated microtiter plates (Express capture Glutathione coated plate, Biocat, Heidelberg, Germany). The plates are pre-equilibrated with PBS. […] The plates are washed 3 times with PBS-Tween-20. The wells are blocked by incubation at room temperature for 20 minutes with 50 μl blocking buffer (PBS, 0.05% Tween-20, 0.5% BSA). Afterwards the plates are washed 3 times with PBS-Tween-20. […] The reaction is stopped by 3 times washing with PBS-Tween-20. For the detection 50 μl of 20 ng/μl Streptavidin, HRP conjugate (MoBiTec, Gottingen, Germany) in PBS/0.05% Tween-20/0.01% BSA are added and the plates are incubated for 30 minutes at room temperature. After three times washing with PBS-Tween-20 50 μl of SuperSignal ELISA Femto Maximum sensitivity substrate solution (ThermoFisherScientific (Pierce), Bonn, Germany) are added. Following a 1 minute incubation at room temperature luminescence signals are measured with an Envision multimode reader (Perkin Elmer LAS Germany GmbH) at 700 nm. The full value used is the inhibitor-free reaction. […] The inhibitory values (IC50) are determined using either the program Symyx Assay Explorer® or Condosseo® from GeneData.

Experiment [2] concerns the target GST-tagged Tnks-2 (873-1166 aa) (Homo sapiens, UniProt Q9H2K2). As to the kind of experiment: biochemical. The procedure: as §1, §2, §3

GST-tagged Tnks-2 (873-1166 aa), sequence (Q9H2K2 873-1166): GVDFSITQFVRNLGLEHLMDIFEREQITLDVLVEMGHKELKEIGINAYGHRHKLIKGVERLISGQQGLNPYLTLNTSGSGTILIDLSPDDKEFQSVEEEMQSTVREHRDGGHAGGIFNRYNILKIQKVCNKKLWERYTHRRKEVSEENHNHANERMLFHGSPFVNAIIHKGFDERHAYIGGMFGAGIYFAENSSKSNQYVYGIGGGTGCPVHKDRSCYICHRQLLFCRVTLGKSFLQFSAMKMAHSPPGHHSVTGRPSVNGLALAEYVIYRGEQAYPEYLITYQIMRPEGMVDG

For the compound `CC(C)(O)c1ccc(-c2nc3c(F)cc(F)c(F)c3c(=O)[nH]2)cc1` [Compound A26, 5,6,8-trifluoro-2-[4-(1-hydroxy-1-methyl-ethyl)-phenyl]-3H-quinazolin-4-one], the EC50 in the experiment with tankyrase 1/2 was below 300 nM. Besides, the IC50 (commonly the concentration at which inhibition is half-maximal) on His-tagged Parp-1 was 300 to 3000 nM; in experiment [1], below 300 nM; in experiment [2] it was below 300 nM.
As to `CCC(O)(CC)c1ccc(-c2nc3ccc(F)cc3c(=O)[nH]2)cc1` [Compound A14, 2-[4-(1-ethyl-1-hydroxy-propyl)phenyl]-6-fluoro-3H-quinazolin-4-one], in the experiment on tankyrase 1/2, the EC50 was below 300 nM. In addition, the IC50 was 300 to 3000 nM against His-tagged Parp-1, below 300 nM in experiment [1] and below 300 nM in experiment [2].
For `O=c1[nH]c(-c2ccc(C3(O)CCCC3)cc2)nc2ccc(F)cc12` [Compound A16, 6-fluoro-2-[4-(1-hydroxycyclopentyl)phenyl]-3H-quinazolin-4-one], in the experiment with tankyrase 1/2, the EC50 lay within 300 to 3000 nM. In addition, the IC50 at His-tagged Parp-1 was 300 to 3000 nM; in experiment [1] it was below 300 nM; in experiment [2] it was below 300 nM.
On to `Cc1cc(F)cc2c(=O)[nH]c(-c3ccc(N4CCC(O)CC4)cc3)nc12` [Compound A29, 6-fluoro-2-[4-(4-hydroxy-piperidin-1-yl)-phenyl]-8-methyl-3H-quinazolin-4-one], for which, in the experiment on tankyrase 1/2, the EC50 is below 300 nM. Moreover, the IC50 (on His-tagged Parp-1; in experiment [1]; in experiment [2]) was below 300 nM each time.
Turning to `Cc1cc(F)cc2c(=O)[nH]c(-c3ccc(N4CCC(CO)CC4)cc3)nc12` [Compound A31, 6-fluoro-2-[4-(4-hydroxymethyl-piperidin-1-yl)-phenyl]-8-methyl-3H-quinazolin-4-one], the EC50 in the experiment with tankyrase 1/2 is below 300 nM. In addition, the IC50 was 300 to 3000 nM on His-tagged Parp-1, below 300 nM in experiment [1] and below 300 nM in experiment [2].
